{"source": "patent US11072634B2", "about": "“Inhibitors of transglutaminases” (Zedira GmbH, priority 2016, dated 2021)", "key": {"[1]": {"system": "BEAS-2B cells", "test": "Extracellular matrix protein deposition of LPS-stimulated BEAS-2B cells", "assay_type": "cell-based, human", "conditions": "0-200 μM", "method": "B) Extracellular matrix protein deposition of homogenates from BEAS-2B-cell grown in the presence of 0-200 μM E22 and stimulated with LPS measured by the DC-protein-assay (BioRad, #5000111).\nExtracellular matrix deposition is a hallmark in pulmonary fibrosis. The BEAS-2B cell line is derived from normal human bronchial epithelium.\nBEAS-2B cells were grown at 37° C. and 5% CO2 in 25 mM HEPES-buffered M199-medium (Merck, Darmstadt) containing 10% FBS, […], 2 mM glutamine, 100 U/ml penicillin (supplemented with […] apotransferrin, 20 ng/ml human epidermal growth factor (EGF), […] insulin, and 0.361 mg/ml hydrocortisone). For the induction of airway fibrosis by epithelial-to-mesenchymal transition (EMT), cells were seeded at 80% confluence on six-well plates. After one day cultivation 4 μg/mL LPS as well as 0 μM, 100 μM or 200 μM E22 were added and then incubated for further 72 h."}, "[2]": {"system": "Human hepatic stellate cell line LX-2", "test": "Extracellular matrix protein deposition of LX-2 cells", "assay_type": "cell-based", "conditions": "LX-2, 100 μM and 200 μM, 12 days", "method": "B) Extracellular matrix protein deposition of homogenates from LX-2-cells grown in standard plastic 6-well plates in the presence of 0-200 μM E22 measured by the DC-protein-assay (BioRad, #5000111).\nHuman hepatic stellate cell line LX-2 was cultured on standard plastic 6 well plates in Dulbecco's Modified Eagle's Medium containing 100 μg/mL streptomycin, 100 units/ml penicillin, 2 mM glutamine, and 10% (v/v) fetal calf serum. E22 was added to a concentration of 0 μM, 100 μM and 200 μM. Cells were grown at 37° C. and 5% CO2 humidified atmosphere. Medium was exchanged every two days."}, "[3]": {"system": "Htt-exon1-97Q transfected N2a-cells", "test": "ELISA of huntingtin and isopeptide bonds in SDS-soluble and formic acid soluble cell extracts", "assay_type": "cell-based, mouse", "conditions": "N2a Htt-exon1-97Q, 150 or 300 μM, both extracts", "method": "A) Detection of huntingtin (htt) in an ELISA-Assay. Microtiter plate wells were coated with SDS-soluble and formic acid solubilized extracts of Htt-exon1-97Q transfected N2a-cells grown in the presence of 150 and 300 μM TG2-inhibitor E22. Anti-Htt-antibody 1C2 (1:250, Millipore, MAB1574) was used as detection antibody, followed by a conventional ELISA-protocol.\nB) Detection of isopeptide bonds in an ELISA-Assay. Microtiter plate wells were coated with SDS-soluble and formic acid solubilized extracts of Htt-exon1-97Q transfected N2a-cells grown in the presence of 150 and 300 μM TG2-inhibitor E22. Antibody A023 (1:200, Zedira) recognizing N^ε-(γ-L-glutamyl)-L-lysine-isopeptide was used as detection antibody, followed by a conventional ELISA-protocol. […]\nSDS-soluble and formic acid soluble extracts were used subsequently for coating of 96-well micro-titer-plates. […] Extinction was measured at 450 nm in a plate reader device.\nIn order to analyze the effect of E22 on huntingtin aggregation and cross-linking, Htt-exon1-97Q transfected N2a-cells were grown in presence of 150 or 300 μM TG2-blacker E22. SDS-soluble and formic acid soluble extracts were generated and huntingtin and cross-links (isopeptide bonds) were determined in an ELISA-format as described above."}}, "data": [{"smiles": "CCCCCNC(=O)C(=O)CC[C@H](NC(=O)[C@@H]1CCCN1C(C)=O)C(=O)Nc1cccn(CC(=O)NCC(CC)CC)c1=O", "note": "[Compound E22, (S)-2-((S)-1-acetylpyrrolidine-2-carboxamido)-N1-(1-(2-(2-ethylbutylamino)-2-oxoethyl)-2-oxo-1,2-dihydropyridin-3-yl)-5-oxo-N6-pentylhexanediamide]", "values": [{"measurement": "deposition of ECM-proteins", "setting": "[1]", "result": "significantly reduced, also in a dose dependent manner"}, {"measurement": "extracellular matrix deposition, of control", "setting": "[2]", "result": "about 30%"}, {"measurement": "protein cross-linking (isopeptide bonds)", "setting": "[3]", "result": "reduces protein cross-linking in a dose dependent manner"}]}]}
